Laboratory results from US12201628B2, “Neuronal modulation” (priority 2013, dated 2025).

What was measured:
[1] = test system: immune cell clusters (CD45+ cells); test: CyTOF mass cytometry of blood and spleen with Citrus analysis; assay type: in vivo, mice; details: 24 h after CNO, VTA-activated vs control
Description: Two weeks after completion of the behavioral testing, mice were injected intraperitoneally with CNO and anesthetized 24 hours thereafter. Spleens and blood samples were collected. Spleens were dissociated into single-cell suspensions in 2% fetal bovine serum (Biological Industries, IL) and mesh filtered to remove clumps and debris. Blood samples were collected into heparin-coated sterile test tubes. Both the blood and the spleen cell suspensions were lysed with red blood cell lysis buffer (BD Biosciences, NJ, US). Cells ([…]) from each tissue were stained, for 1 hour at room temperature, with a mixture of metal tagged antibodies recognizing CD45, CCR3, CD80, GR1, CD86, CD19, CD4, CD45R, CD152, CD138, CD8, NK1.1, CD27, CD206, CD25, CD14, CD11c, CD49b, CD34, CD69, CD123, TCRβ, CCR7, CD28, CD115, CD133, TLR4, CD117, CD79b, CD62L, CD44, CD45RA, CD1d, IAIE, CD5, and CD11b. All antibodies were conjugated using the MAXPAR reagent (Fluidigm Inc.), with Rhodium and Iridium intercalators used to identify live/dead cells. Cells were washed twice with PBS, fixed in 1.6% formaldehyde (Sigma-Aldrich, St. Louis, MO) for 1 hour, washed again in ultrapure H2O and subjected to CyTOF mass cytometry analysis on a CyTOF I machine, with cell events acquired at approximately 500 events per second. In addition, each sample was spiked with internal metal isotope bead standards, which then was used for sample normalization by CyTOF software (Fluidigm). Acquired data was then uploaded to a Cytobank web server (Cytobank Inc.) for data processing and gating out of dead cells and normalization beads. Data was transformed using an arc sin h (X/5) transformation.
Differences in cell subset abundance and functional marker expression between VTA activated and control mice, were identified using the Citrus algorithm, a clustering and differential detection algorithm especially suited for high dimensional cytometry data (2). Twenty FCS files of normalized, live cell/no beads samples (Five VTA activated mice spleens, five VTA activated mice blood samples, 5 control mice spleen and five control mice blood) were each randomly sampled for 40,000 single cell events each. Briefly, Citrus performs three steps to identify cell subsets and differences between groups: First, collected single cell events are pooled together and iteratively hierarchically clustered using a subset of the measured channels for clustering (See Table 1 for a list of 23 clustering markers), yielding overlapping clusters with the ultimate cluster being one encompassing all sampled events. Second, the pooled dataset is split back into its constituting samples and the relative abundance of cells in each cluster is computed, as well as the median values of each functional marker (see Table 1 for a list of functional markers). Only cell clusters whose total abundance in one or more of the measured samples was greater than 1% of the total measured sample was retained for downstream analysis, yielding a total of 151 clusters. Third, the Citrus implementation of the SAM algorithm was applied, to identify, separately, differences in cell subset abundances and medians between VTA activated and control mouse samples at a predetermined FDR of 5%. Beyond this, an additional criteria for calling differences was employed, by performing a Mann-Whitney non-parametric test of significance on each cluster found to be different between VTA activated and control and requiring that it meet a p-value <0.05 criteria. Manual inspection of Citrus output was used to identify the closest known gross-cell type, matching the 23 combination clustering marker panel. A similar procedure analysis procedure was performed for 6-OHDA samples versus control. […]

[2] = test system: E. coli; test: In-vitro E. coli killing assay with spleen monocytes/macrophages; assay type: cell-based, mice; details: monocytes/macrophages from spleens 24 h after CNO; VTA-activated vs control; intact SNS
Description: To evaluate the anti-bacterial efficiency of the spleen monocytes, an in-vitro killing assay was performed. Splenocytes from VTA-activated and control mice were extracted 24 hour after IP injection of CNO. Splenocytes underwent a monocyte enrichment negative selection procedure using the EasySep mouse monocyte enrichment kit (Stem-Cells Technologies, Vancouver, Canada). Enriched monocytes co-cultured with E. coli bacteria at a 12:1 ratio, in RPMI medium containing 10% foetal bovine serum, and incubated at 37° C. for 4 h. Monocytes were then lysed by adding 0.1% Triton X-100 (Sigma-Aldrich, US), and the lysates were diluted ×1000 in PBS. The diluted media were plated onto agar petri dishes, which were then incubated overnight at 37° C. Twelve hours later, the number of remaining bacteria colonies was counted.
To test for functional changes in immune activity following VTA activation, monocytes/macrophages were assayed (the most profound changes in the CyTOF screen). Due to the increase in CD206 levels on these cells, their phagocytic capacity was examined. Cd11b+, Ly6G-cells were isolated from the spleens of both VTA-activated and control mice 24 h following CNO injection. Cells were cultured with E. coli for four hours and then lysed.
The remaining media was plated on agar plates and counted the remaining bacteria colonies. […]

C[N+]1([O-])CCN(C2=Nc3cc(Cl)ccc3Nc3ccccc32)CC1 [CNO, clozapine-N-oxide]
abundance of B-cell subsets ([1]; blood and spleen): decreased in abundance
CD1d levels on APC subsets (granulocytes, NK cells, monocyte/macrophages) ([1]; blood): reduced
CD25, CD69 and CD206 expression ([1]; spleen): upregulation
CD80 and CD86 expression ([1]; spleen): Upregulation
CD1d expression ([1]; spleen): downregulation
number of remaining E. coli colonies [2]: significant decrease
